# Laboratory results: US7998978B2 (Pfizer Inc., priority 2006, dated 2011)
# Molecular target: T1, JNK1α1 (Homo sapiens, UniProt P45983)
# T1 construct: catalytic domain containing amino acids 1-364 and N-terminal hexahistidine tag; hexahistidine (His6) (N); made in house; host or cells: E. coli BL21 (DE3)
# Assay: Coupled spectrophotometric (PK/LDH) JNK1α1 assay: % inhibition and Ki determination
# Format: biochemical
# Details: JNK-1
# Procedure, shortened: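 Initial rates were taken from the absorbance decrease at 340 nm at 30° C. Ki was fitted with a tight-binding model over 11 concentrations (top 100 μM); single-point inhibition was tested at 1 or 10 μM.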
# T1 sequence (P45983 1-364): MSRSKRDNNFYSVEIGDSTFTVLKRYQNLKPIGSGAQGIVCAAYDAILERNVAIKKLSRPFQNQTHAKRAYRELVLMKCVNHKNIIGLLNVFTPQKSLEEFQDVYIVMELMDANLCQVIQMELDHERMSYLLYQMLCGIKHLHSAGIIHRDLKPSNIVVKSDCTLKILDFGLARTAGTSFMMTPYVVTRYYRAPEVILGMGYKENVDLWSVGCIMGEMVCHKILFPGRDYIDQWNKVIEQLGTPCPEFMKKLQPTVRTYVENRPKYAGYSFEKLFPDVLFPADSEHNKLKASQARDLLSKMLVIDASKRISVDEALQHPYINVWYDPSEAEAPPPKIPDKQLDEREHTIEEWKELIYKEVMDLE
row,Ki [nM],Compound
1,195,"CC(C)[C@@H](CO)NC(=O)c1ccc2cnc(N[C@H]3CC[C@H](O)CC3)nc2c1 [Example 382, 2-[(trans-4-hydroxycyclohexyl)amino]-N-[(1S)-1-(hydroxymethyl)-2-methylpropyl]quinazoline-7-carboxamide]"
2,200,"O=C(NC(CO)c1ccccc1)c1ccc2cnc(NC3CCC3)nc2c1 (stereo not shown) [Example 383, 2-(cyclobutylamino)-N-(2-hydroxy-1-phenylethyl)quinazoline-7-carboxamide]"
3,257,"O=C(N[C@H](CO)c1ccccc1)c1ccc2cnc(NC3CCCC3)nc2c1 [Example 384, 2-(cyclopentylamino)-N-[(1S)-2-hydroxy-1-phenylethyl]quinazoline-7-carboxamide]"
4,263,"CC(C)Nc1ncc2ccc(C(=O)NC(CO)c3ccccc3)cc2n1 (stereo not shown) [Example 385, N-(2-hydroxy-1-phenylethyl)-2-(isopropylamino)quinazoline-7-carboxamide]"
5,271,"O=C(N[C@H](CO)CC1CCCCC1)c1ccc2cnc(N[C@H]3CC[C@H](O)CC3)nc2c1 [Example 386, N-[(1S)-2-cyclohexyl-1-(hydroxymethyl)ethyl]-2-[(trans-4-hydroxycyclohexyl)amino]quinazoline-7-carboxamide]"
6,297,"CCC[C@@H](CO)NC(=O)c1ccc2cnc(NC3CCCC3)nc2c1 [Example 387, 2-(cyclopentylamino)-N-[(1S)-1-(hydroxymethyl)butyl]quinazoline-7-carboxamide]"
7,303,"CC[C@@H](CO)NC(=O)c1ccc2cnc(NC3CCCCC3)nc2c1 [Example 388, 2-(cyctohexylamino)-N-[(1S)-1-(hydroxymethyl)propyl]quinazoline-7-carboxamide]"
8,318,"CC(C)[C@@H](CO)NC(=O)c1ccc2cnc(NC3CCCCC3)nc2c1 [Example 389, 2-(cyclohexylamino)-N-[(1S)-1-(hydroxymethyl)-2-methylpropyl]quinazoline-7-carboxamide]"
9,333,"CC(C)C[C@@H](CO)NC(=O)c1ccc2cnc(NC3CCCC3)nc2c1 [Example 390, 2-(cyclopentylamino)-N-[(1S)-1-(hydroxymethyl)-3-methylbutyl]quinazoline-7-carboxamide]"
10,365,"CC(C)C[C@@H](CO)NC(=O)c1ccc2cnc(NC(C)C)nc2c1 [Example 391, N-[(1S)-1-(hydroxymethyl)-3-methylbutyl]-2-(isopropylamino)quinazoline-7-carboxamide]"
11,385,"O=C(N[C@H](CO)c1ccccc1)c1ccc2cnc(NC3CCC3)nc2c1 [Example 392, 2-(cyclobutylamino)-N-[(1S)-2-hydroxy-1-phenylethyl]quinazoline-7-carboxamide]"
12,387,"O=C(N[C@H](CO)CC1CCCCC1)c1ccc2cnc(NC3CCCCC3)nc2c1 [Example 393, 2-(cyclohexylamino)-N-[(1S)-2-cyclohexyl-1-(hydroxymethyl)ethyl]quinazoline-7-carboxamide]"
13,391,"CC(C)Nc1ncc2ccc(C(=O)N[C@H](CO)c3ccccc3)cc2n1 [Example 394, N-[(1S)-2-hydroxy-1-phenylethyl]-2-(isopropylamino)quinazoline-7-carboxamide]"
14,422,"O=C(N[C@H](CO)Cc1ccccc1)c1ccc2cnc(NC3CCCCC3)nc2c1 [Example 395, N-[(1S)-1-benzyl-2-hydroxyethyl]-2-(cyclohexylamino)quinazoline-7-carboxamide]"
15,424,CC[C@H](C)[C@@H](CO)NC(=O)c1ccc2cnc(NC3CCCC3)nc2c1 [Example 396]
16,428,"CC(C)C[C@@H](CO)NC(=O)c1ccc2cnc(NC3CCC3)nc2c1 [Example 397, 2-(cyclobutylamino)-N-[(1S)-1-(hydroxymethyl)-3-methylbutyl]quinazoline-7-carboxamide]"
17,447,"CCC[C@@H](CO)NC(=O)c1ccc2cnc(NC3CCC3)nc2c1 [Example 398, 2-(cyclobutylamino)-N-[(1S)-1-(hydroxymethyl)butyl]quinazoline-7-carboxamide]"
18,461,"C[C@@H](CO)NC(=O)c1ccc2cnc(NC3CCCCC3)nc2c1 [Example 399, 2-(cyclohexylamino)-N-[(1S)-2-hydroxy-1-methylethyl]quinazoline-7-carboxamide]"

# Further lines, the molecule ahead of its results:
row,Compound,Ki [nM]
1,"CC(C)c1ncc(NC(=O)c2ccc3cnc(N[C@H]4CC[C@H](O)CC4)nc3c2)cn1 [Example 359, 2-[(trans-4-hydroxycyclohexyl)amino]-N-(2-isopropylpyrimidin-5-yl)quinazoline-7-carboxamide]",1720
2,"O=C(NCC1(O)CCOCC1)c1ccc2cnc(N[C@H]3CC[C@H](O)CC3)nc2c1 [Example 360, 2-[(trans-4-hydroxycyclohexyl)amino]-N-[(4-hydroxytetrahydro-2H-pyran-4-yl)methyl]quinazoline-7-carboxamide]",1730
3,"COc1ccnc(NC(=O)c2ccc3cnc(N[C@H]4CC[C@H](O)CC4)nc3c2)c1 [Example 361, 2-[(trans-4-hydroxycyclohexyl)amino]-N-(4-methoxypyridin-2-yl)quinazoline-7-carboxamide]",1810
4,COc1ncccc1NC(=O)c1ccc2cnc(N[C@H]3CC[C@H](O)CC3)nc2c1 [Example 362],1810
5,C[C@H](CO)NC(=O)c1ccc2cnc(N[C@H]3CC[C@H](O)CC3)nc2c1 [Example 363],1950
6,"CCOC(=O)N1CC[C@@H](NC(=O)c2ccc3cnc(N[C@H]4CC[C@H](O)CC4)nc3c2)C1 [Example 364, ethyl 3-[({2-[(trans-4-hydroxycyclohexyl)amino]quinazolin-7-yl}carbonyl)amino]pyrrolidine-1-carboxylate]",1990
7,"CC(=O)N1CCC(NC(=O)c2ccc3cnc(N[C@H]4CC[C@H](O)CC4)nc3c2)CC1 [Example 365, N-(1-acetylpiperidin-4-yl)-2-[(trans-4-hydroxycyclohexyl)amino]quinazoline-7-carboxamide]",2060
8,"CC(C)(O)c1ccc(CNC(=O)c2ccc3cnc(N[C@H]4CC[C@H](O)CC4)nc3c2)cc1 [Example 366, 2-[(trans-4-hydroxycyclohexyl)amino]-N-[4-(1-hydroxy-1-methylethyl)benzyl]quinazoline-7-carboxamide]",2170
9,"O=C(NCCN1CCCC1=O)c1ccc2cnc(N[C@H]3CC[C@H](O)CC3)nc2c1 [Example 367, 2-[(trans-4-hydroxycyclohexyl)amino]-N-[2-(2-oxopyrrolidin-1-yl)ethyl]quinazoline-7-carboxamide]",2180
10,"CN(C)C(=O)CNC(=O)c1ccc2cnc(N[C@H]3CC[C@H](O)CC3)nc2c1 [Example 368, N-[2-(dimethylamino)-2-oxoethyl]-2-[(trans-4-hydroxycyclohexyl)amino]quinazoline-7-carboxamide]",2290
11,"Cc1cccc(NC(=O)c2ccc3cnc(N[C@H]4CC[C@H](O)CC4)nc3c2)n1 [Example 369, 2-[(trans-4-hydroxycyclohexyl)amino]-N-(6-methylpyridin-2-yl)quinazoline-7-carboxamide]",2310
12,"O=C(NCCN1CCCCC1=O)c1ccc2cnc(N[C@H]3CC[C@H](O)CC3)nc2c1 [Example 370, 2-[(trans-4-hydroxycyclohexyl)amino]-N-(2-(2-oxopiperidin-1-yl)ethyl]quinazoline-7-carboxamide]",2470
13,"CC(=O)N1CC[C@@H](NC(=O)c2ccc3cnc(N[C@H]4CC[C@H](O)CC4)nc3c2)C1 [Example 371, N-[(3R)-1-acetylpyrrolidin-3-yl]-2-[(trans-4-hydroxycyclohexyl)amino]quinazoline-7-carboxamide]",2490
14,"O=C(N[C@H](CO)c1ccccc1)c1ccc2cnc(N[C@H]3CC[C@H](O)CC3)nc2c1 [Example 372, 2-[(trans-4-hydroxycyclohexyl)amino]-N-[(1S)-2-hydroxy-1-phenylethyl]quinazoline-7-carboxamide]",73.5
15,"O=C(N[C@H](CO)c1ccccc1)c1ccc2cnc(NC3CCCCC3)nc2c1 [Example 373, 2-(cyclohexylamino)-N-[(1S)-2-hydroxy-1-phenylethyl]quinazoline-7-carboxamide]",74
16,"CC(C)C[C@@H](CO)NC(=O)c1ccc2cnc(NC3CCCCC3)nc2c1 [Example 374, 2-(cyclohexylamino)-N-[(1S)-1-(hydroxymethyl)-3-methylbutyl]quinazoline-7-carboxamide]",102
17,"CC(C)C[C@@H](CO)NC(=O)c1ccc2cnc(N[C@H]3CC[C@H](O)CC3)nc2c1 [Example 375, 2-[(trans-4-hydroxycyclohexyl)amino]-N-[(1S)-1-(hydroxymethyl)-3-methylbutyl]quinazoiine-7-carboxamide]",107
18,"CCC[C@@H](CO)NC(=O)c1ccc2cnc(NC3CCCCC3)nc2c1 [Example 376, 2-(cyclohexylamino)-N-[(1S)-1-(hydroxymethyl)butyl]quinazoline-7-carboxamide]",139
19,"CCC[C@@H](CO)NC(=O)c1ccc2cnc(N[C@H]3CC[C@H](O)CC3)nc2c1 [Example 377, 2-[(trans-4-hydroxycyclohexyl)amino]-N-[(1S)-1-(hydroxymethyl)butyl]quinazoline-7-carboxamide]",147
20,"CC[C@H](C)[C@@H](CO)NC(=O)c1ccc2cnc(N[C@H]3CC[C@H](O)CC3)nc2c1 [Example 378, 2-((trans-4-hydroxycyclohexyl)amino]-N-[(1S,2S)-1-(hydroxymethyl)-2-methylbutyl]quinazoline-7-carboxamide]",160
21,"O=C(NC(CO)c1ccccc1)c1ccc2cnc(NC3CCCC3)nc2c1 (stereo not shown) [Example 379, 2-(cyclopentylamino)-N-(2-hydroxy-1-phenylethyl)quinazoline-7-carboxamide]",177
22,"CC[C@H](C)[C@@H](CO)NC(=O)c1ccc2cnc(NC3CCCCC3)nc2c1 [Example 380, 2-(cyclohexylamino)-N-[(1S,2S)-1-(hydroxymethyl)-2-methylbutyl]quinazoline-7-carboxamide]",187
